In patent publication US8362000B2, “Azetidinyl diamides as monoacylglycerol lipase inhibitors” (Janssen Pharmaceutica NV, priority 2009, dated 2013):
pKd: −log10 of the molar value. Like-named read-outs stand apart in the source and are kept apart here.

Target: T1, mutant MGL (Homo sapiens, UniProt Q99685, L169S/L176S)
T1 sequence (Q99685 1-303 L169S/L176S): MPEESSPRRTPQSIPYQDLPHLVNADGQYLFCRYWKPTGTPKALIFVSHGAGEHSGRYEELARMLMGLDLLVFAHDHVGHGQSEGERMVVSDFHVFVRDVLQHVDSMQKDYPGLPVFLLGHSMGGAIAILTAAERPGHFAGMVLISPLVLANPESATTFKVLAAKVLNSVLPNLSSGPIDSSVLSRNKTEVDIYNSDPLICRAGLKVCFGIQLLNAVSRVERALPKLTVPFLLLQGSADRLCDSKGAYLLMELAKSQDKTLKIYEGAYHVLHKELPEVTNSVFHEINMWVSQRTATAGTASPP
Experiment: MGL ThermoFluor assay - mutant
Assay type: binding
Conditions: read-out: MGL mutant ThermoFluor Kd

[1] = ThermoFluor thermal stability binding assay
[2] = ThermoFluor concentration-response

Row | Structure (SMILES) | pKd [1] | pKd [2]
1 | CC(=O)Nc1cccc(-c2ccc(C(=O)N3CC(N4CCN(C(=O)c5nccs5)CC4)C3)cc2)c1 [Cpd 234, N-[4′-({3-[4-(1,3-Thiazol-2-ylcarbonyl)piperazin-1-yl]azetidin-1-yl}carbonyl)biphenyl-3-yl]acetamide] | 7.32 | –
2 | CC(=O)Nc1cccc(-c2ccc(C(=O)N3CC(N4CCN(C(=O)c5cscn5)CC4)C3)cc2)c1 [Cpd 235, N-[4′-({3-[4-(1,3-Thiazol-4-ylcarbonyl)piperazin-1-yl]azetidin-1-yl}carbonyl)biphenyl-3-yl]acetamide] | 6.23 | –
3 | CS(=O)(=O)c1cccc(-c2ccc(C(=O)N3CC(N4CCN(C(=O)c5cscn5)CC4)C3)cc2)c1 [Cpd 236, 1-(1-{[3′-(Methylsulfonyl)biphenyl-4-yl]carbonyl}azetidin-3-yl)-4-(1,3-thiazol-4-ylcarbonyl)piperazine] | 6.70 | –
4 | Cc1cc(-c2cccc(C(F)(F)F)c2)ccc1C(=O)N1CC(N2CCN(C(=O)c3ccccc3)CC2)C1 [Cpd 238, 1-(1-{[3-Methyl-3′-(trifluoromethyl)biphenyl-4-yl]carbonyl}azetidin-3-yl)-4-(phenylcarbonyl)piperazine] | 7.48 | –
5 | Cc1cc(C(=O)N2CC(N3CCN(C(=O)c4nccs4)CC3)C2)ccc1-c1cccc(C(F)(F)F)c1 [Cpd 241, 1-(1-{[2-Methyl-3′-(trifluoromethyl)biphenyl-4-yl]carbonyl}azetidin-3-yl)-4-(1,3-thiazol-2-ylcarbonyl)piperazine] | 9.30 | –
6 | Cc1cc(C(=O)N2CC(N3CCN(C(=O)c4cscn4)CC3)C2)ccc1-c1cccc(C(F)(F)F)c1 [Cpd 242, 1-(1-{[2-Methyl-3′-(trifluoromethyl)biphenyl-4-yl]carbonyl}azetidin-3-yl)-4-(1,3-thiazol-4-ylcarbonyl)piperazine] | 8.40 | –
7 | O=C(c1nccs1)N1CCN(C2CN(C(=O)c3ccc(-c4cccc(C(F)(F)F)c4)cc3F)C2)CC1 [Cpd 244, 1-(1-{[3-Fluoro-3′-(trifluoromethyl)biphenyl-4-yl]carbonyl}azetidin-3-yl)-4-(1,3-thiazol-2-ylcarbonyl)piperazine] | 8.70 | –
8 | O=C(c1ccccc1)N1CCN(C2CN(C(=O)c3ccc(-c4cccc(C(F)(F)F)c4)cc3F)C2)CC1 [Cpd 246, 1-(1-{[3-Fluoro-3′-(trifluoromethyl)biphenyl-4-yl]carbonyl}azetidin-3-yl)-4-(phenylcarbonyl)piperazine] | 7.78 | –
9 | COc1cc(C(=O)N2CC(N3CCN(C(=O)c4nccs4)CC3)C2)ccc1-c1cccc(C(F)(F)F)c1 [Cpd 247, 1-(1-{[2-Methoxy-3′-(trifluoromethyl)biphenyl-4-yl]carbonyl}azetidin-3-yl)-4-(1,3-thiazol-2-ylcarbonyl)piperazine] | 9.40 | –
10 | COc1cc(C(=O)N2CC(N3CCN(C(=O)c4ccccc4)CC3)C2)ccc1-c1cccc(C(F)(F)F)c1 [Cpd 249, 1-(1-{[2-Methoxy-3′-(trifluoromethyl)biphenyl-4-yl]carbonyl}azetidin-3-yl)-4-(phenylcarbonyl)piperazine] | 8.00 | –
11 | Cc1cc(C(=O)N2CC(N3CCN(C(=O)c4cscn4)CC3)C2)ccc1-c1ccc(Cl)c(C(F)(F)F)c1 [Cpd 258, 1-(1-{[4′-Chloro-2-methyl-3′-(trifluoromethyl)biphenyl-4-yl]carbonyl}azetidin-3-yl)-4-(1,3-thiazol-4-ylcarbonyl)piperazine] | 8.48 | –
12 | O=C(/C=C/c1ccccc1Cl)N1CC(N2CCN(C(=O)c3nccs3)CC2)C1 [Cpd 295, 1-{1-[(2E)-3-(2-Chlorophenyl)prop-2-enoyl]azetidin-3-yl}-4-(1,3-thiazol-2-ylcarbonyl)piperazine] | 6.08 | –
13 | O=C(/C=C/c1ccccc1Br)N1CC(N2CCN(C(=O)c3nccs3)CC2)C1 [Cpd 296, 1-{1-[(2E)-3-(2-Bromophenyl)prop-2-enoyl]azetidin-3-yl}-4-(1,3-thiazol-2-ylcarbonyl)piperazine] | 6.32 | –
14 | O=C(C=Cc1ccc2ccccc2c1)N1CC(N2CCN(C(=O)c3nccs3)CC2)C1 [Cpd 297] | 6.48 | –
15 | Cc1ccc(-c2ccc(C(=O)N3CC(N4CCN(C(=O)c5cscn5)CC4)C3)[nH]2)cc1 [Cpd 298] | – | 5.54
16 | O=C(c1ccc(-c2ccccc2)cc1)N1CC(N2CCN(C(=O)c3cnon3)CC2)C1 [Cpd 308] | 5.00 | –
17 | N#Cc1csc(C(=O)N2CCN(C3CN(C(=O)c4ccc(-c5ccccc5)cc4)C3)CC2)c1 [Cpd 309] | 6.60 | –
18 | O=C(c1nccs1)N1CCN(C2CN(C(=O)c3sc4cc(-c5ccccc5)ccc4c3Cl)C2)CC1 [Cpd 343, 1-{1-[(3-Chloro-6-phenyl-1-benzothiophen-2-yl)carbonyl]azetidin-3-3yl}-4-(1,3-thiazol-2-ylcarbonyl)piperazine] | 9.40 | –
19 | CS(=O)(=O)N1CCCc2cc(C(=O)N3CC(N4CCN(C(=O)c5cscn5)CC4)C3)ccc21 [Cpd 362] | 5.62 | –
20 | CS(=O)(=O)N1CCCc2cc(C(=O)N3CC(N4CCN(C(=O)c5ccccc5)CC4)C3)ccc21 [Cpd 363, 1-(Methylsulfonyl)-6-({3-[4-(phenylcarbonyl)piperazin-1-yl]azetidin-1-yl}carbonyl)-1,2,3,4-tetrahydroquinoline] | 5.17 | –
21 | O=C(c1ccc2c(c1)CCCN2c1ccccc1)N1CC(N2CCN(C(=O)c3nccs3)CC2)C1 [Cpd 372, 1-Phenyl-6-({3-[4-(1,3-thiazol-2-ylcarbonyl)piperazin-1-yl]azetidin-1-yl}carbonyl)-1,2,3,4-tetrahydroquinoline] | 7.31 | –

Row | Structure (SMILES) | pKd [1] | pKd [2]
22 | O=C(c1ccc2c(c1)CCCN2c1ccc(C(F)(F)F)cc1)N1CC(N2CCN(C(=O)c3nccs3)CC2)C1 [Cpd 373, 6-({3-[4-(1,3-Thiazol-2-ylcarbonyl)piperazin-1-yl]azetidin-1-yl}carbonyl)-1-[4-(trifluoromethyl)phenyl]-1,2,3,4-tetrahydroquinoline] | 8.26 | –
23 | O=C(c1ccc2c(c1)CCCN2c1cccc(C(F)(F)F)c1)N1CC(N2CCN(C(=O)c3nccs3)CC2)C1 [Cpd 374, 6-({3-[4-(1,3-Thiazol-2-ylcarbonyl)piperazin-1-yl]azetidin-1-yl}carbonyl)-1-[3-(trifluoromethyl)phenyl]-1,2,3,4-tetrahydroquinoline] | 8.66 | –
24 | O=C(c1ccc2c(c1)CCCN2c1ncccn1)N1CC(N2CCN(C(=O)c3nccs3)CC2)C1 [Cpd 375, 1-Pyrimidin-2-yl-6-({3-[4-(1,3-thiazol-2-ylcarbonyl)piperazin-1-yl]azetidin-1-yl}carbonyl)-1,2,3,4-tetrahydroquinoline] | 6.64 | –
25 | CC(=O)N1c2ccc(Br)cc2CCC1C(=O)N1CC(N2CCN(C(=O)c3nccs3)CC2)C1 (stereo not drawn) [Cpd 376, 1-Acetyl-6-bromo-2-({3-[4-(1,3-thiazol-2-ylcarbonyl)piperazin-1-yl]azetidin-1-yl}carbonyl)-1,2,3,4-tetrahydroquinoline] | 5.15 | –
26 | CC(=O)N1c2ccc(Br)cc2CCC1C(=O)N1CC(N2CCN(C(=O)c3cscn3)CC2)C1 (stereo not drawn) [Cpd 377] | < 4.12 | –
27 | CC(=O)N1c2ccc(Br)cc2CCC1C(=O)N1CC(N2CCN(C(=O)c3ccccc3)CC2)C1 (stereo not drawn) [Cpd 378] | < 4.12 | –
28 | O=C(c1ccccc1)N1CCN(C2CN(C(=O)c3ccc(OCc4cccc(OC(F)(F)F)c4)cc3)C2)CC1 [Cpd 393] | 7.04 | –
29 | O=C(c1ccccc1)N1CCN(C2CN(C(=O)c3ccc(OCc4ccc(S(=O)(=O)N5CCOCC5)cc4)cc3)C2)CC1 [Cpd 394] | 6.07 | –
30 | O=C(c1ccccc1)N1CCN(C2CN(C(=O)c3ccc(OCc4ccc(C(F)(F)F)c(F)c4)cc3)C2)CC1 [Cpd 395] | 6.80 | –
31 | O=C(c1ccccc1)N1CCN(C2CN(C(=O)c3ccc(OCc4ccncc4)cc3)C2)CC1 [Cpd 396] | 5.37 | –
32 | O=C(c1ccccc1)N1CCN(C2CN(C(=O)c3ccc(OCc4ccc(Cl)c(Cl)c4)c(Cl)c3)C2)CC1 [Cpd 399] | 7.39 | –
33 | O=C(c1ccc(OCc2ccc(Cl)c(Cl)c2)c(Cl)c1)N1CC(N2CCN(C(=O)c3nccs3)CC2)C1 [Cpd 404] | 8.77 | –
34 | O=C(c1ccc(OCc2cccc(Cl)c2Cl)c(F)c1)N1CC(N2CCN(C(=O)c3nccs3)CC2)C1 [Cpd 405, 1-[1-({4-[(2,3-Dichlorobenzyl)oxy]-3-fluorophenyl}carbon-yl)azetidin-3-yl]-4-(1,3-thiazol-2-ylcarbonyl)piperazine] | 8.70 | –
35 | O=C(c1ccccc1)N1CCN(C2CN(C(=O)c3ccc(OCc4ccncc4)c(Cl)c3)C2)CC1 [Cpd 408] | 5.71 | –
36 | O=C(c1ccccc1)N1CCN(C2CN(C(=O)c3ccc(OCc4cccnc4)c(Cl)c3)C2)CC1 [Cpd 409] | 5.69 | –
37 | O=C(c1ccc(SCc2cccc(Cl)c2)cc1)N1CC(N2CCN(C(=O)c3nccs3)CC2)C1 [Cpd 412, 1-[1-({4-[(3-Chlorobenzyl)sulfanyl]phenyl}carbonyl)azetidin-3-yl]-4-(1,3-thiazol-2-ylcarbonyl)piperazine] | – | 8.00
38 | O=C(c1ccc(SCc2cccc(Cl)c2Cl)cc1)N1CC(N2CCN(C(=O)c3nccs3)CC2)C1 [Cpd 413, 1-[1-({4-[(2,3-Dichlorobenzyl)sulfanyl]phenyl}carbonyl)azetidin-3-yl]-4-(1,3-thiazol-2-ylcarbonyl)piperazine] | – | 8.70
39 | O=C(c1ccc(SCc2ccc(Cl)c(Cl)c2)cc1)N1CC(N2CCN(C(=O)c3nccs3)CC2)C1 [Cpd 414, 1-[1-({4-[(3,4-Dichlorobenzyl)sulfanyl]phenyl}carbonyl)azetidin-3-yl]-4-(1,3-thiazol-2-ylcarbonyl)piperazine] | – | 7.60
40 | O=C(c1ccc(SCc2ccc(Cl)cc2)cc1)N1CC(N2CCN(C(=O)c3nccs3)CC2)C1 [Cpd 415] | – | 8.10
41 | O=C(c1ccccc1)N1CCN(C2CN(C(=O)c3ccc(SCc4ccc(Cl)c(Cl)c4)cc3)C2)CC1 [Cpd 417] | – | 7.18
42 | O=C(c1ccccc1)N1CCN(C2CN(C(=O)c3ccc(SCc4ccc(Cl)cc4)cc3)C2)CC1 [Cpd 418] | – | 6.30
